Results: US11807650B2, “NMDA receptor modulators and uses thereof” (Novartis AG, priority 2016, dated 2023)
Counter-ions that a name gives are not always drawn.

Target: T1, human GRIN1 (transcript variant NR1-3) and GRIN2D expressed in Xenopus oocytes (Homo sapiens, UniProt O15399)
T1 construct: GenScript (GRIN2D synthesis) SC115601; host or cells: Xenopus oocytes injected with cRNA (1 GluN1 : 2 GluN2)
Experiment: NR2D oocyte potentiation assay (two-electrode voltage clamp)
Assay type: cell-based
Details: 10 uM test compound; glutamate and glycine 10 μM each; holding potential −40 mV
Outline: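 Xenopus oocytes were defolliculated with collagenase, then injected with 50 nL of cRNA encoding human GluN1 (NR1-3 variant) and GluN2D mixed 1:2 and kept 72 h at 16° C. Two-electrode voltage clamp at −40 mV recorded currents; after 10 μM glutamate plus 10 μM glycine reached plateau, test compound was added until a new plateau formed.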

T1 sequence (O15399 28-1336, other chains not shown): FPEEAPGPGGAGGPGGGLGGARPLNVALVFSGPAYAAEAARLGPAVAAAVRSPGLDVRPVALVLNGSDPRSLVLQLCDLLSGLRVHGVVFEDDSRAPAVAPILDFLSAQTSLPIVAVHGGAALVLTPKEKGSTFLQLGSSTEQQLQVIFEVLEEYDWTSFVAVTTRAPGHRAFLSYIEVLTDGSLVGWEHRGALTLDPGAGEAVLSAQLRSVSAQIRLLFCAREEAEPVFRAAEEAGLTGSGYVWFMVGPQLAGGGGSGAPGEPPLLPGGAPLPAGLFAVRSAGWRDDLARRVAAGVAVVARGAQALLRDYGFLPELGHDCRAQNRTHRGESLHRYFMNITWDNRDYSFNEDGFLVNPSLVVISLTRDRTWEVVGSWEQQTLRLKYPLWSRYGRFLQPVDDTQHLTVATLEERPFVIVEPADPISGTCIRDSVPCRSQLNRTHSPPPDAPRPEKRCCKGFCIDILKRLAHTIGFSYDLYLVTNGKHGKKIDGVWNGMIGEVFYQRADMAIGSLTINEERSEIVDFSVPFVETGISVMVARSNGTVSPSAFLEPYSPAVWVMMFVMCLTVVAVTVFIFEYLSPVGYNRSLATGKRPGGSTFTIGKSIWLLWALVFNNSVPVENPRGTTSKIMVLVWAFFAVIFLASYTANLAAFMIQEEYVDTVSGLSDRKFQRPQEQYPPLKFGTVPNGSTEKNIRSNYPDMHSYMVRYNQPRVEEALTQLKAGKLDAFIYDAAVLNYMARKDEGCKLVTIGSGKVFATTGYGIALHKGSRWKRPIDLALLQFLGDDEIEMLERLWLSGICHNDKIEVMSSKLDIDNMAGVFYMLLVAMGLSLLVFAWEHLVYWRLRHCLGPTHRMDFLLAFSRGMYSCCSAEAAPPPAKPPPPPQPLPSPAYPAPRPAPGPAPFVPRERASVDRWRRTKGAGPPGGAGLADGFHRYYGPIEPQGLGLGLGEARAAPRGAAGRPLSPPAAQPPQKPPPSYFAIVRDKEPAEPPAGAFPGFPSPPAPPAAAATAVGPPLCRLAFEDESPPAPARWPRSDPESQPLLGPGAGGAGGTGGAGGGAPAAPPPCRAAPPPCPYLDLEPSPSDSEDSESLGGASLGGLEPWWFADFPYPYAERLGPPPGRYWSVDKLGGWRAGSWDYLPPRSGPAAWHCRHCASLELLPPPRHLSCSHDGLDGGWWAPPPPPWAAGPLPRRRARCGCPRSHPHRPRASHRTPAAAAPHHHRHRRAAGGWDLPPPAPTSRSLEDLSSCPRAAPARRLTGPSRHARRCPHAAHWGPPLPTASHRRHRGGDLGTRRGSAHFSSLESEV

| activation at 10 µM | NR2D Oocyte % Potentiation @ 10 uM | Structure (SMILES) |
| --- | --- | --- |
| > 1000% |  | CC(=O)NC[C@@H]1CSc2nc(-c3cnc(C(C)(C)C)c(F)c3)c(C#N)c(=O)n2C1 [Example 169, (S)-N-((8-(6-(tert-butyl)-5-fluoropyridin-3-yl)-7-cyano-6-oxo-3,4-dihydro-2H,6H-pyrimido[2,1-b][1,3]thiazin-3-yl)methyl)acetamide] |
| 500 to 1000% |  | CC1CSc2nc(-c3ccc(C4(C)CC4)nc3)c(C#N)c(=O)n2C1 (stereo not drawn) [Example 108, 3-methyl-8-(6-(1-methylcyclopropyl)pyridin-3-yl)-6-oxo-3,4-dihydro-2H,6H-pyrimido[2,1-b][1,3]thiazine-7-carbonitrile] |
|  | Inhibitor | CCOC(=O)c1ccc(-c2nc3n(c(=O)c2C#N)CCCS3)cn1 [Example 82, ethyl 5-(7-cyano-6-oxo-3,4-dihydro-2H,6H-pyrimido[2,1-b][1,3]thiazin-8-yl)picolinate] |
| 100 to 500% |  | CC1CSc2nc(-c3ccc(C45CC(C4)C5)nc3)c(C#N)c(=O)n2C1 (stereo not drawn) [Example 148, 8-(6-(bicyclo[1.1.1]pentan-1-yl)pyridin-3-yl)-3-methyl-6-oxo-3,4-dihydro-2H,6H-pyrimido[2,1-b][1,3]thiazine-7-carbonitrile] |
| 100 to 500% |  | CC(C)(C)c1ncc(-c2nc3n(c(=O)c2C#N)CC(C(=O)N2CCOCC2)CS3)cc1F (stereo not drawn) [Example 162, 8-(6-(tert-butvl)-5-fluoropyndin-3-yl)-3-(morpholine-4-carbonyl)-6-oxo-3,4-dihydro-2H,6H-pyrimido[2,1-b][1,3]thiazine-7-carbonitrile] |
| > 1000% |  | CC1CSc2cc(-c3cnc(C(C)(C)C)nc3)c(C#N)c(=O)n2C1 (stereo not drawn) [Example 71, 8-(2-(tert-butyl)pyrimidin-5-yl)-3-methyl-6-oxo-3,4-dihydro-2H,6H-pyrido[2,1-b][1,3]thiazine-7-carbonitrile] |
| 100 to 500% |  | CC(C)(C)c1ccc(-c2nc3n(c(=O)c2Br)CCCS3)cn1 [Example 30, 7-bromo-8-(6-(tert-butyl)pyridin-3-yl)-3,4-dihydro-2H,6H-pyrimido[2,1-b][1,3]thiazin-6-one] |
| 100 to 500% |  | CC(C)(C)c1ccc(-c2nc3sccn3c(=O)c2C#N)cn1 [Example 3, 7-(6-(tert-butyl)pyridin-3-yl)-5-oxo-5H-thiazolo[3,2-a]pyrimidine-6-carbonitrile] |
| 100 to 500% |  | CC(C)(C)c1ccc(-c2nc3n(c(=O)c2C#N)CC(C(F)(F)F)CS3)cn1 (stereo not drawn) [Example 143, 8-(6-(tert-butyl)pyridin-3-yl)-6-oxo-3-(trifluoromethyl)-3,4-dihydro-2H,6H-pyrimido[2,1-b][1,3]thiazine-7-carbonitrile] |
|  | Inhibitor | C[C@H]1CSc2nc(-c3ccc(C(C)(C)N(C)C)nc3)c(C#N)c(=O)n2C1 [Example 133, (R)-8-(6-(2-(dimethylamino)propan-2-yl)pyridin-3-yl)-3-methyl-6-oxo-3,4-dihydro-2H,6H-pyrimido[2,1-b][1,3]thiazine-7-carbonitrile] |
| > 1000% |  | COc1cc(-c2nc3n(c(=O)c2C#N)CC(C)CS3)cnc1C(C)(C)C (stereo not drawn) [Example 59, 8-(6-(tert-butyl)-5-methoxypyridin-3-yl)-3-methyl-6-oxo-3,4-dihydro-2H,6H-pyrimido[2,1-b][1,3]thiazine-7-carbonitrile] |
| 10 to 100% |  | CC(C)(C)c1ccc(-c2nc3n(c(=O)c2C#N)CCCO3)cn1 [Example 77, 8-(6-(tert-butyl)pyridin-3-yl)-6-oxo-3,4-dihydro-2H,6H-pyrimido[2,1-b][1,3]oxazine-7-carbonitrile] |
| > 1000% |  | C[C@H]1CSc2nc(-c3cnc(C(C)(C)C)c(F)c3)c(C#N)c(=N)n2C1 [Example 112, (R)-8-(6-(tert-butyl)-5-fluoropyridin-3-yl)-6-imino-3-methyl-3,4-dihydro-2H,6H-pyrimido[2,1-b][1,3]thiazine-7-carbonitrile] |
| > 1000% |  | C=C1CSc2nc(-c3ccc(C(C)(C)C)nc3)c(C#N)c(=O)n2C1 [Example 114, 8-(6-(tert-butyl)pyridin-3-yl)-3-methylene-6-oxo-3,4-dihydro-2H,6H-pyrimido[2,1-b][1,3]thiazine-7-carbonitrile] |
| > 1000% |  | CC(C)(C)c1ncc(-c2nc3n(c(=O)c2C#N)CCCS3)cc1F [Example 75, 8-(6-(tert-butyl)-5-fluoropyridin-3-yl)-6-oxo-3,4-dihydro-2H,6H-pyrimido[2,1-b][1,3]thiazine-7-carbonitrile] |
| > 1000% |  | COCOCC1CSc2nc(-c3cnc(C(C)(C)C)c(F)c3)c(C#N)c(=O)n2C1 (stereo not drawn) [Example 170, 8-(6-(tert-butyl)-5-fluoropyridin-3-yl)-3-((methoxymethoxy)methyl)-6-oxo-3,4-dihydro-2H,6H-pyrimido[2,1-b][1,3]thiazine-7-carbonitrile] |
| 100 to 500% |  | CN1CCCn2c1nc(-c1ccc(C(C)(C)C)nc1)c(C#N)c2=O [Example 94, 8-(6-(tert-butyl)pyridin-3-yl)-1-methyl-6-oxo-1,3,4,6-tetrahydro-2H-pyrimido[1,2-a]pyrimidine-7-carbonitrile] |

| activation at 10 µM | NR2D Oocyte % Potentiation @ 10 uM | Structure (SMILES) |
| --- | --- | --- |
| 10 to 100% |  | CC(C)(C)c1ccc(-c2nc3n(c(=O)c2C#N)CC(CN)CS3)cn1 (stereo not drawn) [Example 145, 3-(aminomethyl)-8-(6-(tert-butyl)pyridin-3-yl)-6-oxo-3,4-dihydro-2H,6H-pyrimido[2,1-b][1,3]thiazine-7-carbonitrile hydrochloride] |
| > 1000% |  | COCSCC1COc2nc(-c3cnc(C(C)(C)C)c(F)c3)c(C#N)c(=O)n2C1 (stereo not drawn) [Example 165, 8-(6-tert-butyl-5-fluoropyridin-3-yl)-3-{[(methoxymethyl)sulfanyl]methyl}-6-oxo-2H,3H, 4H,6H-pyrimido [2,1-b][1,3] oxazine-7-carbonitrile] |
| 10 to 100% |  | CC(C)(O)c1ccc(-c2nc3n(c(=O)c2C#N)CCCS3)cn1 [Example 83, 8-(6-(2-hydroxypropan-2-yl)pyridin-3-yl)-6-oxo-3,4-dihydro-2H,6H-pyrimido[2,1-b][1,3]thiazine-7-carbonitrile] |
| 10 to 100% |  | CN(C)CC1CSc2nc(-c3cnc(C(C)(C)C)c(F)c3)c(C#N)c(=O)n2C1 (stereo not drawn) [Example 160, 8-(6-(tert-butyl)-5-fluoropyridin-3-yl)-3-((dimethylamino)methyl)-6-oxo-3,4-dihydro-2H,6H-pyrimido[2,1-b][1,3]thiazine-7-carbonitrile] |
| < 10% |  | CSc1c(-c2ccc(C(C)(C)C)cc2)nc2n(c1=O)CCCC2 [Example 25, 2-(4-(tert-butyl)phenyl)-3-(methylthio)-6,7,8,9-tetrahydro-4H-pyrido[1,2-a]pyrimidin-4-one] |
| < 10% |  | CSc1c(-c2ccc(C(C)(C)C)nc2)nc2n(c1=O)CCCC2 [Example 27, 2-(6-tert-butylpyridin-3-yl)-3-(methylsulfanyl)-4H,6H,7H, 8H,9H-pyrido[1,2-a] pyrimidin-4-one] |
| 10 to 100% |  | C=Cc1c(-c2ccc(C(C)(C)C)nc2)nc2n(c1=O)CCCS2 [Example 33, 8-(6-tert-butylpyridin-3-yl)-7-ethenyl-2H, 3H,4H,6H-pyrimido [2,1-b][1,3] thiazin-6-one] |
| 10 to 100% |  | CC(C)(C)c1ccc(-c2nc3n(c(=O)c2C#N)CN(c2ccccc2)CS3)cc1 [Example 5, 8-(4-(tert-butyl)phenyl)-6-oxo-3-phenyl-3,4-dihydro-2H,6H-pyrimido[2,1-b][1,3,5]thiadiazine-7-carbonitrile] |
| > 1000% |  | COCOC[C@@H]1CSc2nc(-c3cnc(C(C)(C)C)c(F)c3)c(C#N)c(=O)n2C1 [Example 172, (R)-8-(6-(tert-butyl)-5-fluoropyridin-3-yl)-3-((methoxymethoxy)methyl)-6-oxo-3,4-dihydro-2H,6H-pyrimido[2,1-b][1,3]thiazine-7-carbonitrile] |
| > 1000% |  | C[C@@H]1CSc2nc(-c3cnc(C(C)(C)C)c(F)c3)c(C#N)c(=O)n2C1 [Example 99, (S)-8-(6-(tert-butyl)-5-fluoropyridin-3-yl)-3-methyl-6-oxo-3,4-dihydro-2H,6H-pyrimido[2,1-b][1,3]thiazine-7-carbonitrile] |
| > 1000% |  | C[C@H]1CSc2nc(-c3cnc(C(C)(C)C)c(F)c3)c(C#N)c(=O)n2C1 [Example 98, (R)-8-(6-(tert-butyl)-5-fluoropyridin-3-yl)-3-methyl-6-oxo-3,4-dihydro-2H,6H-pyrimido[2,1-b][1,3]thiazine-7-carbonitrile] |
| 10 to 100% |  | CN1CSc2nc(-c3ccc(C(C)(C)C)nc3)c(C#N)c(=O)n2C1 [Example 8, 8-(6-(tert-butyl)pyridin-3-yl)-3-methyl-6-oxo-3,4-dihydro-2H,6H-pyrimido[2,1-b][1,3,5]thiadiazine-7-carbonitrile] |
| 10 to 100% |  | CC(C)(C)c1ncc(-c2nc3n(c(=O)c2C#N)CC(CN2CCCC2)CS3)cc1F (stereo not drawn) [Example 159, 8-(6-(tert-butyl)-5-fluoropyridin-3-yl)-6-oxo-3-(pyrrolidin-1-ylmethyl)-3,4-dihydro-2H,6H-pyrimido[2,1-b][1,3]thiazine-7-carbonitrile] |
| 10 to 100% |  | CC(C)(C#N)c1ccc(-c2nc3n(c(=O)c2C#N)CCCS3)cn1 [Example 78, 8-(6-(2-cyanopropan-2-yl)pyridin-3-yl)-6-oxo-3,4-dihydro-2H,6H-pyrimido[2,1-b][1,3]thiazine-7-carbonitrile] |
| 100 to 500% |  | CC(C)(C)c1ccc(-c2nc3n(c(=O)c2C#N)CCS3)cn1 [Example 1, 7-(6-(tert-butyl)pyridin-3-yl)-5-oxo-2,3-dihydro-5H-thiazolo[3,2-a]pyrimidine-6-carbonitrile] |
| > 1000% |  | C[C@@H]1CSc2cc(-c3ccc(C(C)(C)C)nc3)c(C#N)c(=O)n2C1 [Example 97, (S)-8-(6-(tert-butyl)pyridin-3-yl)-3-methyl-6-oxo-3,4-dihydro-2H,6H-pyrido[2,1-b][1,3]thiazine-7-carbonitrile] |
